The text below walks through data of PMC9687209 (2022).

In general, KD refers to the concentration at which binding is half-saturated. The low end stands for tighter binding, the high end for weaker binding. The term EC50 denotes the midpoint of the concentration-response curve. A low value points to an effect from little substance.

The test system of assay [1] is C1-d (DNA, aptamer) CCGAGGTGTGTACACCGTG
The assay can be described thus: BLI. Particulars: 177.7 mM Na+, 0.492 mM Mg2+, 0.2 g/L KCl, 0.2 g/L KH2PO4, 0.1 g/L CaCl2, pH 7.4, 25 °C.

The test system of assay [2] is C2 (DNA, aptamer) ATTGGCACTCCACGCATAGGGGATAACGGGTTGATGGTACTTCTATCTATCGCGTTGTGCCCTATGCGTGCTACCGTGAA
The assay can be described thus: BLI. The following applies: 177.7 mM Na+, 0.492 mM Mg2+; 0.2 g/L KCl, 0.2 g/L KH2PO4, 0.1 g/L CaCl2; selection buffer (NaCl/phosphate), pH 7.4, 25 °C.

Assay [3] has as its system C58/htC3 (DNA, aptamer) ATTGGCACTCCACGCATAGGCCAAGGTGTCAATCTTGAATAGCTGTGTAACGTCTATGTGCCTATGCGTGCTACCGTGAA
The assay can be described thus: BLI. Particulars: 177.7 mM Na+, 0.492 mM Mg2+; 0.2 g/L KCl, 0.2 g/L KH2PO4, 0.1 g/L CaCl2; selection buffer (NaCl/phosphate), pH 7.4, 25 °C.

Assay [4] has as its system C87 (DNA, aptamer) ATTGGCACTCCACGCATAGGGGAAGCTGCTCTCATCAATAAAAAATGAGACGGAGGTTACCCTATGCGTGCTACCGTGAA
Put plainly: BLI. The following applies: 177.7 mM Na+, 0.492 mM Mg2+; 0.2 g/L KCl, 0.2 g/L KH2PO4, 0.1 g/L CaCl2; selection buffer (NaCl/phosphate), pH 7.4, 25 °C.

The subject of assay [5] is C1-c (DNA, aptamer) CCAACATGATGTTCCGTCATTTTGAGCGTG
The assay can be described thus: BLI. Particulars: 177.7 mM Na+, 0.492 mM Mg2+; 0.2 g/L KCl, 0.2 g/L KH2PO4, 0.1 g/L CaCl2; selection buffer (NaCl/phosphate), pH 7.4, 25 °C.

For assay [6], the system named is C1-b (DNA, aptamer) GGTGTGTACACC
Put plainly: BLI. Particulars: 177.7 mM Na+, 0.492 mM Mg2+; 0.2 g/L KCl, 0.2 g/L KH2PO4, 0.1 g/L CaCl2; selection buffer (NaCl/phosphate), pH 7.4, 25 °C.

The subject of assay [7] is C100/htC4 (DNA, aptamer) ATTGGCACTCCACGCATAGGGAATGGACCCGGTATAATTCCCTCAAGAGTGCCAATTTCACCTATGCGTGCTACCGTGAA
The assay can be described thus: BLI. The following applies: 177.7 mM Na+, 0.492 mM Mg2+; 0.2 g/L KCl, 0.2 g/L KH2PO4, 0.1 g/L CaCl2; selection buffer (NaCl/phosphate), pH 7.4, 25 °C.

For assay [8], the system named is C1-s (DNA, aptamer) CCAACATGATGTTCCGTCATTTTGAGGTGTGTACACCGTG
Put plainly: BLI. Particulars: 177.7 mM Na+, 0.492 mM Mg2+; 0.2 g/L KCl, 0.2 g/L KH2PO4, 0.1 g/L CaCl2; selection buffer (NaCl/phosphate), pH 7.4, 25 °C.

Assay [9] deals with C12/htC2 (DNA, aptamer) ATTGGCACTCCACGCATAGGGACATCGAGAAGAATCCTGATACGACTTGGCTTTGCTGGCCCTATGCGTGCTACCGTGAA
The assay can be described thus: BLI. The following applies: 177.7 mM Na+, 0.492 mM Mg2+; 0.2 g/L KCl, 0.2 g/L KH2PO4, 0.1 g/L CaCl2; selection buffer (NaCl/phosphate), pH 7.4, 25 °C.

The test system of assay [10] is C66 (DNA, aptamer) ATTGGCACTCCACGCATAGGGGTGGTCTTCTGGGTAATCCCCGACTACCCTTATGCCGGCCCTATGCGTGCTACCGTGAA
Put plainly: BLI. Particulars: 177.7 mM Na+, 0.492 mM Mg2+; 0.2 g/L KCl, 0.2 g/L KH2PO4, 0.1 g/L CaCl2; selection buffer (NaCl/phosphate), pH 7.4, 25 °C.

Assay [11] has as its system C1-a (DNA, aptamer) CAACATGATGTTCCGTCATTTTG
Put plainly: BLI. Particulars: 177.7 mM Na+, 0.492 mM Mg2+; 0.2 g/L KCl, 0.2 g/L KH2PO4, 0.1 g/L CaCl2; selection buffer (NaCl/phosphate), pH 7.4, 25 °C.

The subject of assay [12] is Random Sequence (DNA, single strand) ATTGGCACTCCACGCATAGGATTCCGGCTAATCGACTGACTGCCGGTACGATGCAGTCAGCCTATGCGTGCTACCGTGAA
The assay can be described thus: BLI. The following applies: 177.7 mM Na+, 0.492 mM Mg2+; 0.2 g/L KCl, 0.2 g/L KH2PO4, 0.1 g/L CaCl2; selection buffer, pH 7.4, 25 °C; NB [sic]; 6.25 μM tested in Figure 4.

For assay [13], the system named is C1/htC1 (DNA, aptamer) ATTGGCACTCCACGCATAGGCCAACATGATGTTCCGTCATTTTGAGGTGTGTACACCGTGCCTATGCGTGCTACCGTGAA
Put plainly: BLI. Particulars: 177.7 mM Na+, 0.492 mM Mg2+; 0.2 g/L KCl, 0.2 g/L KH2PO4, 0.1 g/L CaCl2; selection buffer (NaCl/phosphate), pH 7.4, 25 °C.

For assay [14], the system named is C53 (DNA, aptamer) ATTGGCACTCCACGCATAGGGTAAAGTACGTATGTCATGCACATGCCGTATTCTCTTTGCCCTATGCGTGCTACCGTGAA
The assay can be described thus: BLI. Particulars: 177.7 mM Na+, 0.492 mM Mg2+; 0.2 g/L KCl, 0.2 g/L KH2PO4, 0.1 g/L CaCl2; selection buffer (NaCl/phosphate), pH 7.4, 25 °C; NB [sic]; highest concentration not stated.

For assay [15], the system named is C116 (DNA, aptamer) ATTGGCACTCCACGCATAGGGATCTCATAACCAGTCTCTTTGACTGATGTTAGTAAGGTCCCTATGCGTGCTACCGTGAA
Put plainly: BLI. The following applies: 177.7 mM Na+, 0.492 mM Mg2+; 0.2 g/L KCl, 0.2 g/L KH2PO4, 0.1 g/L CaCl2; selection buffer (NaCl/phosphate), pH 7.4, 25 °C.

In assay [16] the test system is htC5 (DNA, aptamer) ATTGGCACTCCACGCATAGGGGAGGGCCGGTTGAACTGTAATGTGTAAACCACGCGCTACCCTATGCGTGCTACCGTGAA
Put plainly: BLI. Particulars: 177.7 mM Na+, 0.492 mM Mg2+; 0.2 g/L KCl, 0.2 g/L KH2PO4, 0.1 g/L CaCl2; selection buffer (NaCl/phosphate), pH 7.4, 25 °C; NB [sic]; highest concentration not stated.

The subject of assay [17] is C1-d (DNA, aptamer) CCGAGGTGTGTACACCGTG
The assay can be described thus: BLI response, four-parameter logistic fit. The following applies: 177.7 mM Na+, 0.492 mM Mg2+; 0.2 g/L KCl, 0.2 g/L KH2PO4, 0.1 g/L CaCl2; selection buffer, pH 7.4, 25 °C; calibration curve 0.625-30 μM DA; Hill slope 1.351.

As for `C=C1[C@@H](O)[C@@H]2O[C@]3(CC[C@H](/C=C/[C@@H](C)[C@@H]4CC(C)=C[C@@]5(O[C@H](C[C@@](C)(O)C(=O)O)CC[C@H]5O)O4)O3)CC[C@H]2O[C@@H]1[C@@H](O)C[C@H](C)[C@H]1O[C@@]2(CCCCO2)CC[C@H]1C`, in assay [1] (selection buffer, 6.25 μM tested), the binding entry is recorded as “no”.

In the case of `C/C(=C/C=C/[C@@H](C)C(=O)O)[C@H]1CN[C@H](C(=O)O)[C@H]1CC(=O)O`, the KD in assay [2] was found to be 20.3 µM; in [1] (selection buffer (NaCl/phosphate), kon 2.94 × 10^5 1/Ms, kdis 5.13 × 10^-2 1/s) it was 0.109 ± 0.00931 µM; in assay [3], 6.33 µM; in assay [4], 5.04 µM; in assay [5], 4.9 ± 0.312 µM; in [6], 0.167 ± 0.00933 µM. Also, the KD stood at 3.25 µM in [7]; 1.5 ± 0.113 µM in assay [8]; 5.21 µM in [9]; 22.7 µM in [10]; 6.9 ± 0.628 µM in assay [11]; 1.69 µM in [13]. Further, the KD in assay [15] stood at 11.7 µM. Further, the binding result in assay [12], in assay [14] and in assay [16] was “no” throughout. Also, the EC50 in [17] came out at 12.57 µM.
